This note sets out measurements from patent US8962608B2, “Cycloalkylnitrile pyrazole carboxamides as janus kinase inhibitors” (Merck Sharp & Dohme Corp., priority 2011, dated 2015).

As usually defined, the IC50 is the midpoint of a concentration-inhibition curve.
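Note: biochemical JAK kinase assay with HTRF detection.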

JAK2 (recombinant purified GST-tagged catalytic domain), sequence (O60674 849-1124): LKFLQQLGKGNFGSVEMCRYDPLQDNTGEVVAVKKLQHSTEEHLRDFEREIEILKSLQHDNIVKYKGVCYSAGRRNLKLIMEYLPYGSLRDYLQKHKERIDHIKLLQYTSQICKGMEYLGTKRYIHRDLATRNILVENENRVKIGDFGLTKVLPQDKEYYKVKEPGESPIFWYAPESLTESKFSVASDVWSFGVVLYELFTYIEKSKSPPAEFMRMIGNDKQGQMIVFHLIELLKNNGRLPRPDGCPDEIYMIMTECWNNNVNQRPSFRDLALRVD

The assay has as its target JAK2 (recombinant purified GST-tagged catalytic domain) (Homo sapiens (Human), UniProt O60674). Description: biochemical.
For the compound `CC(C)(c1ccc(Nc2nn([C@H]3CCCC[C@@H]3C#N)cc2C(N)=O)cc1F)[C@@H](O)C(F)(F)F` (single isomer, unassigned) [Example 17-33, 1-[(1S,2S or 1R,2R)-2-cyanocyclohexyl]-3-({3-fluoro-4-[(2R or 2S)-3,3,3-trifluoro-2-hydroxy-1,1-dimethylpropyl]phenyl}amino)-1H-pyrazole-4-carboxamide], the half-maximal inhibitory concentration (IC50) is 0.004 µM.

Turning to `N#C[C@H]1CCCC[C@@H]1n1cc(C(N)=O)c(Nc2cnc3cc(Cl)ccc3c2)n1` (single isomer, unassigned) [Example 17-61, 3-[(7-chloroquinolin-3-yl)amino]-1-[(1S,2S or 1R,2R)-2-cyanocyclohexyl]-1H-pyrazole-4-carboxamide], the IC50 is 0.021 µM. Consider `N#Cc1cncc(Nc2nn([C@H]3CCCC[C@@H]3C#N)cc2C(N)=O)c1` (single isomer, unassigned) [Example 17-74, 1-[(1R,2R or 1S,2S)-2-cyanocyclohexyl]-3-[(5-cyanopyridin-3-yl)amino]-1H-pyrazole-4-carboxamide], for which the IC50 was determined as 0.049 µM. For `N#Cc1ccc(Nc2nn([C@H]3CCCC[C@@H]3C#N)cc2C(N)=O)cn1` (single isomer, unassigned) [Example 17-75, 1-[(1R,2R or 1S,2S)-2-cyanocyclohexyl]-3-[(6-cyanopyridin-3-yl)amino]-1H-pyrazole-4-carboxamide], the IC50 amounted to 0.022 µM. As to `Cc1cc(Nc2nn([C@H]3CCCC[C@@H]3C#N)cc2C(N)=O)cnc1C#N` (single isomer, unassigned) [Example 17-77, 1-[(1R,2R or 1S,2S)-2-cyanocyclohexyl]-3-[(6-cyano-5-methylpyridin-3-yl)amino]-1H-pyrazole-4-carboxamide], the IC50 turned out to be 0.018 µM.

Turning to `N#C[C@H]1CCCC[C@@H]1n1cc(C(N)=O)c(Nc2ccc(S(=O)(=O)Nc3ccc4cccnc4c3)cc2)n1` (single isomer, unassigned) [Example 17-94, 1-[(1R,2R or 1S,2S)-2-cyanocyclohexyl]-3-{[4-(quinolin-7-ylsulfamoyl)phenyl]amino}-1H-pyrazole-4-carboxamide], the IC50 was 0.033 µM.

`N#C[C@H]1CCCC[C@@H]1n1cc(C(N)=O)c(Nc2ccc(S(=O)(=O)N3CCOCC3)cc2)n1` (single isomer, unassigned) [Example 17-99, 1-[(1R,2R or 1S,2S)-2-cyanocyclohexyl]-3-{[4-(morpholin-4-ylsulfonyl)phenyl]amino}-1H-pyrazole-4-carboxamide]: the IC50 is 0.001 µM. `N#C[C@H]1C[C@H](O)CC[C@@H]1n1cc(C(N)=O)c(Nc2ccc(Cl)nc2)n1` (single isomer, unassigned) [Example 25-12, 3-[(6-chloropyridin-3-yl)amino]-1-[(1S,2S,4R or 1R,2R,4S)-2-cyano-4-hydroxycyclohexyl]-1H-pyrazole-4-carboxamide]: the IC50 came to 0.02 µM. Turning to `N#C[C@H]1C[C@H](O)CC[C@@H]1n1cc(C(N)=O)c(Nc2ccc(C3CC3)cc2)n1` (single isomer, unassigned) [Example 25-14, 1-[(1S,2S,4R or 1R,2R,4S)-2-cyano-4-hydroxycyclohexyl]-3-[(4-cyclopropylphenyl)amino]-1H-pyrazole-4-carboxamide], the IC50 stood at 0.025 µM. Under `N#C[C@H]1C[C@H](O)CC[C@@H]1n1cc(C(N)=O)c(Nc2ccc(C(F)(F)F)c(F)c2)n1` (single isomer, unassigned) [Example 25-23, 1-[(1S,2S,4R or 1R,2R,4S)-2-cyano-4-hydroxycyclohexyl]-3-{[3-fluoro-4-(trifluoromethyl)phenyl]amino}-1H-pyrazole-4-carboxamide] stands 0.028 µM; under `N#C[C@H]1C[C@H](OCC2CC2)CC[C@@H]1n1cc(C(N)=O)c(Nc2ccc([C@@H](O)C(F)(F)F)cc2)n1` (single isomer, unassigned) [Example 26-5, 1-[(1S,2S,4R or 1R,2R,4S)-2-cyano-4-(cyclopropylmethoxy)cyclohexyl]-3-({4-[(1R or 1S)-2,2,2-trifluoro-1-hydroxyethyl]phenyl}amino)-1H-pyrazole-4-carboxamide], 0.014 µM; under `N#C[C@@H]1C[C@H](OCC2CC2)CC[C@H]1n1cc(C(N)=O)c(Nc2ccc([C@H](O)C(F)(F)F)cc2)n1` (single isomer, unassigned) [Example 26-6, 1-[(1R,2R,4R or 1S,2S,4S)-2-cyano-4-(cyclopropylmethoxy)cyclohexyl]-3-({4-[(1S or 1R)-2,2,2-trifluoro-1-hydroxyethyl]phenyl}amino)-1H-pyrazole-4-carboxamide], 0.032 µM.

On to `N#C[C@H]1C[C@H](OCC2CC2)CC[C@@H]1n1cc(C(N)=O)c(Nc2ccc([C@H](O)C(F)(F)F)cc2)n1` (single isomer, unassigned) [Example 26-7, 1-[(1S,2S,4R or 1R,2R,4S)-2-cyano-4-(cyclopropylmethoxy)cyclohexyl]-3-({4-[(1S or 1R)-2,2,2-trifluoro-1-hydroxyethyl]phenyl]amino)-1H-pyrazole-4-carboxamide], for which the IC50 was found to be 0.009 µM. As to `N#C[C@@H]1C[C@H](OCC2CC2)CC[C@H]1n1cc(C(N)=O)c(Nc2ccc([C@@H](O)C(F)(F)F)cc2)n1` (single isomer, unassigned) [Example 26-8, 1-[(1R,2R,4R or 1S,2S,4S)-2-cyano-4-(cyclopropylmethoxy)cyclohexyl]-3-({4-[(1R or 1S)-2,2,2-trifluoro-1-hydroxyethyl]phenyl}amino)-1H-pyrazole-4-carboxamide], the IC50 worked out at 0.019 µM. Under `N#C[C@H]1C[C@@H](OCC2CC2)CC[C@@H]1n1cc(C(N)=O)c(Nc2ccc(F)cc2)n1` (single isomer, unassigned) [Example 26-9, 1-[(1S,2S,4S or 1R,2R,4R)-2-cyano-4-(cyclopropylmethoxy)cyclohexyl]-3-[(4-fluorophenyl)amino]-1H-pyrazole-4-carboxamide] stands 0.033 µM; under `N#C[C@@H]1C[C@@H](OCC2CC2)CC[C@H]1n1cc(C(N)=O)c(Nc2ccc(F)cc2)n1` (single isomer, unassigned) [Example 26-10, 1-[(1R,2R,4S or 1S,2S,4R)-2-cyano-4-(cyclopropylmethoxy)cyclohexyl]-3-[(4-fluorophenyl)amino]-1H-pyrazole-4-carboxamide], 0.102 µM. In the case of `N#C[C@H]1C[C@@H](OCC2CC2)CC[C@H]1n1cc(C(N)=O)c(Nc2ccc(F)cc2)n1` (single isomer, unassigned) [Example 26-11, 1-[(1R,2S,4S or 1S,2R,4R)-2-cyano-4-(cyclopropylmethoxy)cyclohexyl]-3-[(4-fluorophenyl)amino]-1H-pyrazole-4-carboxamide], the IC50 is over 1.5 µM. The result for `C[C@H](N[C@H]1CC[C@H](n2cc(C(N)=O)c(Nc3ccc(C(F)(F)F)nc3)n2)[C@@H](C#N)C1)C1CC1` (single isomer, unassigned) [Example 28-8, 1-[(1S,2S,4S or 1R,2R,4R)-2-cyano-4-{[(1S)-1-cyclopropylethyl]amino}cyclo-hexyl]-3-{[6-(trifluoromethyl)pyridin-3-yl]amino}-1H-pyrazole-4-carboxamide] reads 0.2 µM. Turning to `CC1(CN[C@@H]2CC[C@H](n3cc(C(N)=O)c(Nc4ccc(C(F)(F)F)cc4)n3)[C@@H](C#N)C2)COC1` (single isomer, unassigned) [Example 28-16, 1-[(1S,2S,4R or 1R,2R,4S)-2-cyano-4-{[(3-methyloxetan-3-yl)methyl]amino}cyclohexyl]-3-{[4-(trifluoromethyl)phenyl]amino}-1H-pyrazole-4-carboxamide], the IC50 is 0.021 µM. The result for `CN(C)[C@@H]1CC[C@@H](n2cc(C(N)=O)c(Nc3ccc(C(F)(F)F)nc3)n2)[C@H](C#N)C1` (single isomer, unassigned) [Example 28-18, 1-[(1R,2R,4R or 1S,2S,4S)-2-cyano-4-(dimethylamino)cyclohexyl]-3-{[6-(trifluoromethyl)pyridin-3-yl]amino}-1H-pyrazole-4-carboxamide] reads 0.4 µM. `C[C@H](N[C@@H]1CC[C@H](n2cc(C(N)=O)c(Nc3ccc(C(F)(F)F)nc3)n2)[C@@H](C#N)C1)C1CC1` (single isomer, unassigned) [Example 28-19, 1-[(1S,2S,4R or 1R,2R,4S)-2-cyano-4-{[(1S)-1-cyclopropylethyl]amino}cyclo-hexyl]-3-{[6-(trifluoromethyl)pyridin-3-yl]amino}-1H-pyrazole-4-carboxamide]: the IC50 was 0.675 µM. Turning to `CN(C)[C@H]1CC[C@H](n2cc(C(N)=O)c(Nc3ccc(C(F)(F)F)nc3)n2)[C@@H](C#N)C1` (single isomer, unassigned) [Example 28-22, 1-[(1S,2S,4S or 1R,2R,4R)-2-cyano-4-(dimethylamino)cyclohexyl]-3-{[6-(trifluoromethyl)pyridin-3-yl]amino}-1H-pyrazole-4-carboxamide], the IC50 amounted to 0.145 µM.

For the compound `CN(C)[C@@H]1CC[C@H](n2cc(C(N)=O)c(Nc3ccc(C(F)(F)F)nc3)n2)[C@@H](C#N)C1` (single isomer, unassigned) [Example 28-25, 1-[(1S,2S,4R or 1R,2R,4S)-2-cyano-4-(dimethylamino)cyclohexyl]-3-{[6-(trifluoromethyl)pyridin-3-yl]amino}-1H-pyrazole-4-carboxamide], the half-inhibitory concentration (IC50) was 0.155 µM. With `CC1(CN[C@H]2CC[C@H](n3cc(C(N)=O)c(Nc4ccc(C(F)(F)F)cc4)n3)[C@@H](C#N)C2)COC1` (single isomer, unassigned) [Example 28-26, 1-[(1S,2S,4S or 1R,2R,4R)-2-cyano-4-{[(3-methyloxetan-3-yl)methyl]amino}cyclohexyl]-3-{[4-(trifluoromethyl)phenyl]amino}-1H-pyrazole-4-carboxamide], the IC50 was found to be 0.035 µM. As to `CN(C)[C@H]1CC[C@@H](n2cc(C(N)=O)c(Nc3ccc(C(F)(F)F)nc3)n2)[C@H](C#N)C1` (single isomer, unassigned) [Example 28-27, 1-[(1R,2R,4S or 1S,2S,4R)-2-cyano-4-(dimethylamino)cyclohexyl]-3-{[6-(trifluoromethyl)pyridin-3-yl]amino}-1H-pyrazole-4-carboxamide], the IC50 turned out to be 0.8 µM.
